Data taken from paper PMC7311426, “An amphipathic peptide with antibiotic activity against multidrug-resistant Gram-negative bacteria” (Nature Communications, 2020).
In brackets after ≈: the same amount, converted by molar mass.

What was measured:
Experiment in all cases: microbe, parasite or virus in culture
[1] = system: K. pneumoniae
In short: (§1)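 Broth microdilution in MHB, 2-fold 12-point series from 128 or 64 down to 0.06 or 0.03 μg mL^−1, 5 × 10^5 CFU mL^−1. Extra runs in CAMHB per CLSI and in MHB with 1% agarose; n ≥ 6.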

[2] = system: E. coli
In short: as §1

[3] = system: P. aeruginosa
In short: as §1

For `C[C@H]1[C@H](NC(=O)/C(=N\OC(C)(C)C(=O)O)c2csc(N)n2)C(=O)N1S(=O)(=O)O` [AZT], the “MIC, broth microdilution” value ([1]; K. pneumoniae 3010 parent strain not exposed to drug) was 0.06 µg/mL (≈ 0.138 µM), the “MIC, broth microdilution” value ([1]; K. pneumoniae ST258 parent strain not exposed to drug) was >32 µg/mL and the “MIC, broth microdilution” value ([1]; K. pneumoniae ST258 spontaneous mutant, AA139 selection 4X, plate 1, colony 1, drug-free passage 1) was >32 , >32 µg/mL. The “MIC, broth microdilution” value ([1]; K. pneumoniae ST258 spontaneous mutant, AA139 selection 4X, plate 1, colony 1, drug-free passage 5) was >32 , >32 µg/mL, the “MIC, broth microdilution” value ([2]; E. coli AUD172 parent strain not exposed to drug) was >32 µg/mL and the “MIC, broth microdilution” value ([2]; E. coli AUD172 spontaneous mutant, AA139 selection 4X, plate 2, colony 2, drug-free passage 1) was >32 , >32 µg/mL. For the same molecule, the “MIC, broth microdilution” value ([2]; E. coli AUD172 spontaneous mutant, AA139 selection 4X, plate 2, colony 2, drug-free passage 5) was >32 , >32 µg/mL, the “MIC, broth microdilution” value ([3]; P. aeruginosa ATCC 27853 parent strain not exposed to drug) was 4 µg/mL (≈ 9.19 µM) and the “MIC, broth microdilution” value ([3]; P. aeruginosa ATCC 27853 spontaneous mutant, AA139 selection 4X, plate 1, colony 1, drug-free passage 1) was 4, 4 µg/mL. For the same molecule, the “MIC, broth microdilution” value ([3]; P. aeruginosa ATCC 27853 spontaneous mutant, AA139 selection 4X, plate 1, colony 1, drug-free passage 5) was 4, 4 µg/mL, the “MIC, broth microdilution” value ([3]; P. aeruginosa ATCC 27853 spontaneous mutant, AA139 selection 4X, plate 1, colony 2, drug-free passage 1) was 8 µg/mL (≈ 18.4 µM) and the “MIC, broth microdilution” value ([3]; P. aeruginosa ATCC 27853 spontaneous mutant, AA139 selection 4X, plate 1, colony 2, drug-free passage 5) was 4 µg/mL (≈ 9.19 µM). The “MIC, broth microdilution” value ([3]; P. aeruginosa ATCC 27853 spontaneous mutant, AA139 selection 4X, plate 1, colony 3, drug-free passage 1) was 4 µg/mL (≈ 9.19 µM), the “MIC, broth microdilution” value ([3]; P. aeruginosa ATCC 27853 spontaneous mutant, AA139 selection 4X, plate 1, colony 3, drug-free passage 5) was 8 µg/mL (≈ 18.4 µM) and the “MIC, broth microdilution” value ([3]; P. aeruginosa ATCC 27853 spontaneous mutant, AA139 selection 4X, plate 1, colony 4, drug-free passage 1) was 8 µg/mL (≈ 18.4 µM). The “MIC, broth microdilution” value ([3]; P. aeruginosa ATCC 27853 spontaneous mutant, AA139 selection 4X, plate 1, colony 4, drug-free passage 5) was 4 µg/mL (≈ 9.19 µM), the “MIC, broth microdilution” value ([3]; P. aeruginosa ATCC 27853 spontaneous mutant, AA139 selection 4X, plate 1, colony 5, drug-free passage 1) was 8 µg/mL (≈ 18.4 µM) and the “MIC, broth microdilution” value ([3]; P. aeruginosa ATCC 27853 spontaneous mutant, AA139 selection 4X, plate 1, colony 5, drug-free passage 5) was 4 µg/mL (≈ 9.19 µM). The “MIC, broth microdilution” value ([3]; P. aeruginosa ATCC 27853 spontaneous mutant, AA139 selection 4X, plate 1, colony 6, drug-free passage 1) was 8 µg/mL (≈ 18.4 µM), the “MIC, broth microdilution” value ([3]; P. aeruginosa ATCC 27853 spontaneous mutant, AA139 selection 4X, plate 1, colony 6, drug-free passage 5) was 4 µg/mL (≈ 9.19 µM) and the “MIC, broth microdilution” value ([3]; P. aeruginosa ATCC 27853 spontaneous mutant, AA139 selection 4X, plate 2, colony 1, drug-free passage 1) was 4, 4 µg/mL. The “MIC, broth microdilution” value ([3]; P. aeruginosa ATCC 27853 spontaneous mutant, AA139 selection 4X, plate 2, colony 1, drug-free passage 5) was 4, 4 µg/mL, the “MIC, broth microdilution” value ([3]; P. aeruginosa ATCC 27853 spontaneous mutant, AA139 selection 4X, plate 2, colony 2, drug-free passage 1) was 4, 4 µg/mL and the “MIC, broth microdilution” value ([3]; P. aeruginosa ATCC 27853 spontaneous mutant, AA139 selection 4X, plate 2, colony 2, drug-free passage 5) was 4, 4 µg/mL. For the same molecule, the “MIC, broth microdilution” value ([3]; P. aeruginosa ATCC 27853 spontaneous mutant, AA139 selection 4X, plate 2, colony 3, drug-free passage 1) was 4, 4 µg/mL, the “MIC, broth microdilution” value ([3]; P. aeruginosa ATCC 27853 spontaneous mutant, AA139 selection 4X, plate 2, colony 3, drug-free passage 5) was 4, 4 µg/mL and the “MIC, broth microdilution” value ([3]; P. aeruginosa ATCC 27853 spontaneous mutant, AA139 selection 4X, plate 2, colony 4, drug-free passage 1) was 4, 4 µg/mL. For the same molecule, the “MIC, broth microdilution” value ([3]; P. aeruginosa ATCC 27853 spontaneous mutant, AA139 selection 4X, plate 2, colony 4, drug-free passage 5) was 4, 4 µg/mL, the “MIC, broth microdilution” value ([3]; P. aeruginosa ATCC 27853 spontaneous mutant, AA139 selection 8X, plate 1, colony 1, drug-free passage 1) was 8 µg/mL (≈ 18.4 µM) and the “MIC, broth microdilution” value ([3]; P. aeruginosa ATCC 27853 spontaneous mutant, AA139 selection 8X, plate 1, colony 1, drug-free passage 5) was 4 µg/mL (≈ 9.19 µM). For the same molecule, the “MIC, broth microdilution” value ([3]; P. aeruginosa ATCC 27853 spontaneous mutant, AA139 selection 8X, plate 1, colony 2, drug-free passage 1) was 8, 8 µg/mL, the “MIC, broth microdilution” value ([3]; P. aeruginosa ATCC 27853 spontaneous mutant, AA139 selection 8X, plate 1, colony 2, drug-free passage 5) was 8, 8 µg/mL and the “MIC, broth microdilution” value ([3]; P. aeruginosa ATCC 27853 spontaneous mutant, AA139 selection 8X, plate 1, colony 3, drug-free passage 1) was 8, 8 µg/mL. The “MIC, broth microdilution” value ([3]; P. aeruginosa ATCC 27853 spontaneous mutant, AA139 selection 8X, plate 1, colony 3, drug-free passage 5) was 8, 8 µg/mL, the “MIC, broth microdilution” value ([3]; P. aeruginosa ATCC 27853 spontaneous mutant, AA139 selection 8X, plate 1, colony 4, drug-free passage 1) was 8, 8 µg/mL and the “MIC, broth microdilution” value ([3]; P. aeruginosa ATCC 27853 spontaneous mutant, AA139 selection 8X, plate 1, colony 4, drug-free passage 5) was 8, 8 µg/mL. For the same molecule, the “MIC, broth microdilution” value ([3]; P. aeruginosa ATCC 27853 spontaneous mutant, AA139 selection 8X, plate 1, colony 5, drug-free passage 1) was 8, 8 µg/mL, the “MIC, broth microdilution” value ([3]; P. aeruginosa ATCC 27853 spontaneous mutant, AA139 selection 8X, plate 1, colony 5, drug-free passage 5) was 8, 8 µg/mL and the “MIC, broth microdilution” value ([3]; P. aeruginosa UNT 138-1 parent strain not exposed to drug) was 4 µg/mL (≈ 9.19 µM). For the same molecule, the “MIC, broth microdilution” value ([3]; P. aeruginosa UNT 138-1 spontaneous mutant, AA139 selection 4X, plate 1, colony 1, drug-free passage 1) was 4 µg/mL (≈ 9.19 µM), the “MIC, broth microdilution” value ([3]; P. aeruginosa UNT 138-1 spontaneous mutant, AA139 selection 4X, plate 1, colony 1, drug-free passage 5) was 8 µg/mL (≈ 18.4 µM) and the “MIC, broth microdilution” value ([3]; P. aeruginosa UNT 138-1 spontaneous mutant, AA139 selection 4X, plate 1, colony 2, drug-free passage 1) was 4, 4 µg/mL. For the same molecule, the “MIC, broth microdilution” value ([3]; P. aeruginosa UNT 138-1 spontaneous mutant, AA139 selection 4X, plate 1, colony 2, drug-free passage 5) was 4, 4 µg/mL, the “MIC, broth microdilution” value ([3]; P. aeruginosa UNT 138-1 spontaneous mutant, AA139 selection 4X, plate 1, colony 3, drug-free passage 1) was 4 µg/mL (≈ 9.19 µM) and the “MIC, broth microdilution” value ([3]; P. aeruginosa UNT 138-1 spontaneous mutant, AA139 selection 4X, plate 1, colony 3, drug-free passage 5) was 8 µg/mL (≈ 18.4 µM). The “MIC, broth microdilution” value ([3]; P. aeruginosa UNT 138-1 spontaneous mutant, AA139 selection 4X, plate 1, colony 4, drug-free passage 1) was 8, 8 µg/mL, the “MIC, broth microdilution” value ([3]; P. aeruginosa UNT 138-1 spontaneous mutant, AA139 selection 4X, plate 1, colony 4, drug-free passage 5) was 8, 8 µg/mL and the “MIC, broth microdilution” value ([3]; P. aeruginosa UNT 138-1 spontaneous mutant, AA139 selection 4X, plate 1, colony 5, drug-free passage 1) was 4, 4 µg/mL. The “MIC, broth microdilution” value ([3]; P. aeruginosa UNT 138-1 spontaneous mutant, AA139 selection 4X, plate 1, colony 5, drug-free passage 5) was 4, 4 µg/mL, the “MIC, broth microdilution” value ([3]; P. aeruginosa UNT 138-1 spontaneous mutant, AA139 selection 4X, plate 1, colony 6, drug-free passage 1) was 4, 4 µg/mL and the “MIC, broth microdilution” value ([3]; P. aeruginosa UNT 138-1 spontaneous mutant, AA139 selection 4X, plate 1, colony 6, drug-free passage 5) was 4, 4 µg/mL. For the same molecule, the “MIC, broth microdilution” value ([3]; P. aeruginosa UNT 138-1 spontaneous mutant, AA139 selection 4X, plate 1, colony 7, drug-free passage 1) was 4, 4 µg/mL, the “MIC, broth microdilution” value ([3]; P. aeruginosa UNT 138-1 spontaneous mutant, AA139 selection 4X, plate 1, colony 7, drug-free passage 5) was 4, 4 µg/mL and the “MIC, broth microdilution” value ([3]; P. aeruginosa UNT 138-1 spontaneous mutant, AA139 selection 4X, plate 2, colony 1, drug-free passage 1) was 8, 8 µg/mL. The “MIC, broth microdilution” value ([3]; P. aeruginosa UNT 138-1 spontaneous mutant, AA139 selection 4X, plate 2, colony 1, drug-free passage 5) was 8, 8 µg/mL, the “MIC, broth microdilution” value ([3]; P. aeruginosa UNT 138-1 spontaneous mutant, AA139 selection 4X, plate 2, colony 2, drug-free passage 1) was 4, 4 µg/mL and the “MIC, broth microdilution” value ([3]; P. aeruginosa UNT 138-1 spontaneous mutant, AA139 selection 4X, plate 2, colony 2, drug-free passage 5) was 4, 4 µg/mL. The “MIC, broth microdilution” value ([3]; P. aeruginosa UNT 138-1 spontaneous mutant, AA139 selection 4X, plate 2, colony 3, drug-free passage 1) was 4, 4 µg/mL, the “MIC, broth microdilution” value ([3]; P. aeruginosa UNT 138-1 spontaneous mutant, AA139 selection 4X, plate 2, colony 3, drug-free passage 5) was 4, 4 µg/mL and the “MIC, broth microdilution” value ([3]; P. aeruginosa UNT 138-1 spontaneous mutant, AA139 selection 4X, plate 2, colony 4, drug-free passage 1) was 4, 4 µg/mL. The “MIC, broth microdilution” value ([3]; P. aeruginosa UNT 138-1 spontaneous mutant, AA139 selection 4X, plate 2, colony 4, drug-free passage 5) was 4, 4 µg/mL, the “MIC, broth microdilution” value ([3]; P. aeruginosa UNT 138-1 spontaneous mutant, AA139 selection 4X, plate 2, colony 5, drug-free passage 1) was 4, 4 µg/mL and the “MIC, broth microdilution” value ([3]; P. aeruginosa UNT 138-1 spontaneous mutant, AA139 selection 4X, plate 2, colony 5, drug-free passage 5) was 4, 4 µg/mL. For the same molecule, the “MIC, broth microdilution” value ([3]; P. aeruginosa UNT 138-1 spontaneous mutant, AA139 selection 4X, plate 2, colony 6, drug-free passage 1) was 4, 4 µg/mL, the “MIC, broth microdilution” value ([3]; P. aeruginosa UNT 138-1 spontaneous mutant, AA139 selection 4X, plate 2, colony 6, drug-free passage 5) was 4, 4 µg/mL and the “MIC, broth microdilution” value ([3]; P. aeruginosa UNT 138-1 spontaneous mutant, AA139 selection 4X, plate 2, colony 7, drug-free passage 1) was 4, 4 µg/mL. For the same molecule, the “MIC, broth microdilution” value ([3]; P. aeruginosa UNT 138-1 spontaneous mutant, AA139 selection 4X, plate 2, colony 7, drug-free passage 5) was 4, 4 µg/mL, the “MIC, broth microdilution” value ([3]; P. aeruginosa UNT 138-1 spontaneous mutant, AA139 selection 8X, plate 1, colony 1, drug-free passage 1) was 4, 4 µg/mL and the “MIC, broth microdilution” value ([3]; P. aeruginosa UNT 138-1 spontaneous mutant, AA139 selection 8X, plate 1, colony 1, drug-free passage 5) was 4, 4 µg/mL. The “MIC, broth microdilution” value ([3]; P. aeruginosa UNT 138-1 spontaneous mutant, AA139 selection 8X, plate 1, colony 2, drug-free passage 1) was 4, 4 µg/mL, the “MIC, broth microdilution” value ([3]; P. aeruginosa UNT 138-1 spontaneous mutant, AA139 selection 8X, plate 1, colony 2, drug-free passage 5) was 4, 4 µg/mL and the “MIC, broth microdilution” value ([3]; P. aeruginosa UNT 138-1 spontaneous mutant, AA139 selection 8X, plate 1, colony 3, drug-free passage 1) was 4, 4 µg/mL. For the same molecule, the “MIC, broth microdilution” value ([3]; P. aeruginosa UNT 138-1 spontaneous mutant, AA139 selection 8X, plate 1, colony 3, drug-free passage 5) was 4, 4 µg/mL, the “MIC, broth microdilution” value ([3]; P. aeruginosa UNT 138-1 spontaneous mutant, AA139 selection 8X, plate 1, colony 4, drug-free passage 1) was 4, 4 µg/mL and the “MIC, broth microdilution” value ([3]; P. aeruginosa UNT 138-1 spontaneous mutant, AA139 selection 8X, plate 1, colony 4, drug-free passage 5) was 4, 4 µg/mL. For the same molecule, the “MIC, broth microdilution” value ([3]; P. aeruginosa UNT 138-1 spontaneous mutant, AA139 selection 8X, plate 1, colony 5, drug-free passage 1) was 4 µg/mL (≈ 9.19 µM), the “MIC, broth microdilution” value ([3]; P. aeruginosa UNT 138-1 spontaneous mutant, AA139 selection 8X, plate 1, colony 5, drug-free passage 5) was 8 µg/mL (≈ 18.4 µM) and the “MIC, broth microdilution” value ([3]; P. aeruginosa UNT 138-1 spontaneous mutant, AA139 selection 8X, plate 2, colony 1, drug-free passage 1) was 4 µg/mL (≈ 9.19 µM). For the same molecule, the “MIC, broth microdilution” value ([3]; P. aeruginosa UNT 138-1 spontaneous mutant, AA139 selection 8X, plate 2, colony 1, drug-free passage 5) was 8 µg/mL (≈ 18.4 µM).
